Laboratory results as given in PubChem BioAssay AID2060909 (Molecular Pharmacology Branch, DTP, NCI, 2025).
pIC50: −log10 of the molar value.

Test system: 362531-283-R-J2-PDC complex spheroid viability
Assay: Anticancer human tumor 362531-283-R-J2-PDC patient-derived colon adenocarcinoma cell line growth inhibition [RAS]
Details: for pIC50: curve of first compound; for viability, T/C: stronger effect = lower value
Method in brief: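 Tumour cells grown as complex spheroids with HUVEC endothelial cells and mesenchymal stem cells, treated with RAS pathway inhibitor combinations. Each agent spans half-log steps from near clinical Cmax, or 10 microM where Cmax is unknown.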
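Note: spheroids exposed to the agents for 7 days before readout.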
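Throughout, for viability, T/C: luminescence viability as percent of DMSO vehicle control wells.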

With `C=CC(=O)N1CCN(c2nc(OCC3CCCN3C)nc3c(F)c(-c4nc(N)cc(C)c4C(F)(F)F)c(Cl)cc23)C(C)C1` (centres undefined) + CCn1c(-c2cccnc2C(C)OC)c2c3cc(ccc31)N1CCOC(CC(NC(=O)C(C(C)C)N(C)C(=O)C3(F)CCN(C(=O)C#CC(C)(C)N(C)C)CC3)C(=O)N3CCCC(N3)C(=O)OCC(C)(C)C2)C1 the pIC50 (second compound 0.000949 µM) was under 6.00, the pIC50 (second compound 0.003 µM) was under 6.00 and the pIC50 (second compound 0.00949 µM) was under 6.00. For the same compound, the pIC50 (second compound 0.03 µM) was under 6.00, the pIC50 (second compound 0.0949 µM) was under 6.00 and the pIC50 (second compound 0.3 µM) was under 6.00. For the same compound, the viability, T/C (second compound 0.000949 µM, first compound 0.00316 µM) was 98.9%, the viability, T/C (second compound 0.000949 µM, first compound 0.01 µM) was 106% and the viability, T/C (second compound 0.000949 µM, first compound 0.0316 µM) was 106%. It also gave a viability, T/C (second compound 0.000949 µM, first compound 0.1 µM) of 97%, a viability, T/C (second compound 0.000949 µM, first compound 0.316 µM) of 107% and a viability, T/C (second compound 0.000949 µM, first compound 1 µM) of 95.2%. The viability, T/C (second compound 0.003 µM, first compound 0.00316 µM) was 111%, the viability, T/C (second compound 0.003 µM, first compound 0.01 µM) was 104% and the viability, T/C (second compound 0.003 µM, first compound 0.0316 µM) was 98.5%. For the same compound, the viability, T/C (second compound 0.003 µM, first compound 0.1 µM) was 92.4%, the viability, T/C (second compound 0.003 µM, first compound 0.316 µM) was 96.1% and the viability, T/C (second compound 0.003 µM, first compound 1 µM) was 91.8%. It also gave a viability, T/C (second compound 0.00949 µM, first compound 0.00316 µM) of 101%, a viability, T/C (second compound 0.00949 µM, first compound 0.01 µM) of 122% and a viability, T/C (second compound 0.00949 µM, first compound 0.0316 µM) of 97.2%. The viability, T/C (second compound 0.00949 µM, first compound 0.1 µM) was 100%, the viability, T/C (second compound 0.00949 µM, first compound 0.316 µM) was 101% and the viability, T/C (second compound 0.00949 µM, first compound 1 µM) was 98.8%. For the same compound, the viability, T/C (second compound 0.03 µM, first compound 0.00316 µM) was 100%, the viability, T/C (second compound 0.03 µM, first compound 0.01 µM) was 117% and the viability, T/C (second compound 0.03 µM, first compound 0.0316 µM) was 87%. For the same compound, the viability, T/C (second compound 0.03 µM, first compound 0.1 µM) was 96.2%, the viability, T/C (second compound 0.03 µM, first compound 0.316 µM) was 101% and the viability, T/C (second compound 0.03 µM, first compound 1 µM) was 106%. It also gave a viability, T/C (second compound 0.0949 µM, first compound 0.00316 µM) of 93.6%, a viability, T/C (second compound 0.0949 µM, first compound 0.01 µM) of 95.7% and a viability, T/C (second compound 0.0949 µM, first compound 0.0316 µM) of 103%. It also gave a viability, T/C (second compound 0.0949 µM, first compound 0.1 µM) of 101%, a viability, T/C (second compound 0.0949 µM, first compound 0.316 µM) of 95.6% and a viability, T/C (second compound 0.0949 µM, first compound 1 µM) of 113%. The viability, T/C (second compound 0.3 µM, first compound 0.00316 µM) was 100%, the viability, T/C (second compound 0.3 µM, first compound 0.01 µM) was 109% and the viability, T/C (second compound 0.3 µM, first compound 0.0316 µM) was 108%. It also gave a viability, T/C (second compound 0.3 µM, first compound 0.1 µM) of 103%, a viability, T/C (second compound 0.3 µM, first compound 0.316 µM) of 94.4% and a viability, T/C (second compound 0.3 µM, first compound 1 µM) of 100%.
`CC1(C)CCC(Nc2ncc(C(F)(F)F)c(-c3c[nH]c4c(P(C)(C)=O)c(C#N)ccc34)n2)CN1` (centres undefined) + CCn1c(-c2cccnc2C(C)OC)c2c3cc(ccc31)N1CCOC(CC(NC(=O)C(C(C)C)N(C)C(=O)C3(F)CCN(C(=O)C#CC(C)(C)N(C)C)CC3)C(=O)N3CCCC(N3)C(=O)OCC(C)(C)C2)C1 was tested, and the pIC50 (second compound 0.000949 µM) was under 6.52, the pIC50 (second compound 0.003 µM) was under 6.52 and the pIC50 (second compound 0.00949 µM) was under 6.52. It also gave a pIC50 (second compound 0.03 µM) of under 6.52, a pIC50 (second compound 0.0949 µM) of under 6.52 and a pIC50 (second compound 0.3 µM) of under 6.52. The viability, T/C (second compound 0.000949 µM, first compound 0.000949 µM) was 105%, the viability, T/C (second compound 0.000949 µM, first compound 0.003 µM) was 99.2% and the viability, T/C (second compound 0.000949 µM, first compound 0.00949 µM) was 102%. For the same compound, the viability, T/C (second compound 0.000949 µM, first compound 0.03 µM) was 98.3%, the viability, T/C (second compound 0.000949 µM, first compound 0.0949 µM) was 108% and the viability, T/C (second compound 0.000949 µM, first compound 0.3 µM) was 99.1%. It also gave a viability, T/C (second compound 0.003 µM, first compound 0.000949 µM) of 110%, a viability, T/C (second compound 0.003 µM, first compound 0.003 µM) of 99.3% and a viability, T/C (second compound 0.003 µM, first compound 0.00949 µM) of 98%. It also gave a viability, T/C (second compound 0.003 µM, first compound 0.03 µM) of 92.6%, a viability, T/C (second compound 0.003 µM, first compound 0.0949 µM) of 107% and a viability, T/C (second compound 0.003 µM, first compound 0.3 µM) of 89.1%. For the same compound, the viability, T/C (second compound 0.00949 µM, first compound 0.000949 µM) was 97.5%, the viability, T/C (second compound 0.00949 µM, first compound 0.003 µM) was 102% and the viability, T/C (second compound 0.00949 µM, first compound 0.00949 µM) was 87.3%. For the same compound, the viability, T/C (second compound 0.00949 µM, first compound 0.03 µM) was 105%, the viability, T/C (second compound 0.00949 µM, first compound 0.0949 µM) was 102% and the viability, T/C (second compound 0.00949 µM, first compound 0.3 µM) was 104%. The viability, T/C (second compound 0.03 µM, first compound 0.000949 µM) was 98.5%, the viability, T/C (second compound 0.03 µM, first compound 0.003 µM) was 110% and the viability, T/C (second compound 0.03 µM, first compound 0.00949 µM) was 95.9%. It also gave a viability, T/C (second compound 0.03 µM, first compound 0.03 µM) of 98.9%, a viability, T/C (second compound 0.03 µM, first compound 0.0949 µM) of 100% and a viability, T/C (second compound 0.03 µM, first compound 0.3 µM) of 91.3%. The viability, T/C (second compound 0.0949 µM, first compound 0.000949 µM) was 86.8%, the viability, T/C (second compound 0.0949 µM, first compound 0.003 µM) was 99.5% and the viability, T/C (second compound 0.0949 µM, first compound 0.00949 µM) was 103%. For the same compound, the viability, T/C (second compound 0.0949 µM, first compound 0.03 µM) was 95.2%, the viability, T/C (second compound 0.0949 µM, first compound 0.0949 µM) was 103% and the viability, T/C (second compound 0.0949 µM, first compound 0.3 µM) was 107%. The viability, T/C (second compound 0.3 µM, first compound 0.000949 µM) was 96.8%, the viability, T/C (second compound 0.3 µM, first compound 0.003 µM) was 102% and the viability, T/C (second compound 0.3 µM, first compound 0.00949 µM) was 94.1%. The viability, T/C (second compound 0.3 µM, first compound 0.03 µM) was 98.5%, the viability, T/C (second compound 0.3 µM, first compound 0.0949 µM) was 101% and the viability, T/C (second compound 0.3 µM, first compound 0.3 µM) was 94.9%.
